Measured values as given in patent US12473250B2, “Molecular design of new antibiotics and antibiotic adjuvants against MCR strains” (priority 2019, dated 2025).
≈ marks a conversion by molar mass, not a printed value.

Assays:
Format in all cases: cell-based
[1] = tested on: colistin resistant MCR (−) E. Coli strains; assay: MIC, broth microdilution, compound alone
Description: (§1) MIC experiments of the antimicrobial agents were determined by a modified broth microdilution method in accordance with the Clinical and Laboratory Standards Institute (CLSI) guidelines using 96 well culture plates. In brief, serial dilutions of all plates were prepared at different concentrations (μg). The inoculum suspension was prepared by adding isolated colonies from a 18-20 hours on TSA plate into phosphate buffer (0.31 mM, pH 7.2) or in water for injection (BBraun) and adjusting the suspension to a turbidity equivalent to 0.5 McFarland Standard. Each well contained a final bacterial concentration of approximately 5×10^5 colony forming units (CFU)/mL. The plate was covered and incubated at 35° C. for 24 hours. […] For the microdilution plates, turbidity in wells can be measured at OD600 using TECAN infinite M200Pro. MIC was determined as […] concentration that gives a 99 percent inhibition.

[2] = tested on: colistin resistant MCR (+) E. Coli strains; assay: MIC, broth microdilution, compound alone; conditions: compound alone
Description: as §1

[3] = tested on: colistin resistant MCR (−) E. Coli strains; assay: Synergy study: colistin MIC in the presence of compound
Description: (§2) The MICs of the individual drugs and LC compound in combinations were determined using the broth microdilution technique as recommended by the CLSI whereby the two anti-microbial agents were added in an equal amount. (e.g.: 50 μL of Colistin: 50 μL of LC compounds). Diluted media containing compounds and antibiotics will be serially diluted 2-fold, and LC compounds and antibiotics alone or in combination will be assayed at fixed synergy concentration. In all cases, the lowest concentration at which no visible growth occurred was be recorded to be the MIC value of individual and combined antibacterial agents. The results were obtained after 24 hours of incubation.

[4] = tested on: colistin resistant MCR (+) E. Coli strains; assay: as above
Description: as §2

various pathogens = assay: organism not typed
Description: as §2
Using the combination of LC100 and colistin, the activity of a broad range of strains was further tested (Table 7).

[5] = strain 6083672926, MCR(−), compound at 5 μg (Table 2a: 5 ug/ml)
[6] = strain 7023446108, MCR(−), compound at 5 μg (Table 2a: 5 ug/ml)
[7] = strain 7033607097, MCR(−), compound at 5 μg (Table 2a: 5 ug/ml)

CC(C)=CCc1c(OCCCN2CCNCCNCCNCC2)ccc(C(=O)/C=C/c2ccc(OCCCN3CCNCCNCCNCC3)cc2)c1O [LC206]
MIC ([1]; strain 6083672926, MCR (−)): >50 µg/mL
MIC ([1]; strain 7023446108, MCR (−)): >50 µg/mL
MIC ([1]; strain 7033607097, MCR (−)): >50 µg/mL
MIC ([2]; strain 6075066346, MCR (+)): >50 µg/mL
MIC ([2]; strain 6083655967, MCR (+)): >50 µg/mL
MIC ([2]; strain 7103531927, MCR (+)): >50 µg/mL
Colistin MIC in the presence of the compound [3, 5]: 0.39 µg/mL
Colistin MIC in the presence of the compound [3, 6]: 0.39 µg/mL
Colistin MIC in the presence of the compound [3, 7]: 0.39 µg/mL
Colistin MIC in the presence of the compound ([4]; strain 6075066346, MCR(+), compound at 5 μg (Table 2a: 5 ug/ml)): 0.39 µg/mL
Colistin MIC in the presence of the compound ([4]; strain 6083655967, MCR(+), compound at 5 μg (Table 2a: 5 ug/ml)): 0.39 µg/mL
Colistin MIC in the presence of the compound ([4]; strain 7103531927, MCR(+), compound at 5 μg): 0.39 µg/mL

CC(C)=CCc1c(OCCNCCN)ccc(C(=O)/C=C/c2ccc(OCCNCCN)cc2)c1O [LC143]
MIC ([1]; strain 6083672926, MCR (−)): 12.5 µg/mL (≈ 25.2 µM)
MIC ([1]; strain 7023446108, MCR (−)): 6.25 µg/mL (≈ 12.6 µM)
MIC ([1]; strain 7033607097, MCR (−)): 6.25 µg/mL (≈ 12.6 µM)
MIC ([2]; strain 6075066346, MCR (+)): 6.25 µg/mL (≈ 12.6 µM)
MIC ([2]; strain 6083655967, MCR (+)): 6.25 µg/mL (≈ 12.6 µM)
MIC ([2]; strain 7103531927, MCR (+)): 12.5 µg/mL (≈ 25.2 µM)
Colistin MIC in the presence of the compound [3, 5]: ≤0.0975 µg/mL
Colistin MIC in the presence of the compound [3, 6]: ≤0.0975 µg/mL
Colistin MIC in the presence of the compound [3, 7]: ≤0.0975 µg/mL

COc1c(N2CCNC(C)C2)c(F)cc2c(=O)c(C(=O)O)cn(C3CC3)c12 (stereo not drawn) [Gatifloxacin]
MIC (various pathogens; ACBA 1003 (CI)): 12.5 µg/mL
MIC (various pathogens; ACBA 1004 (CI)): 12.5 µg/mL
MIC (various pathogens; ACBA 1005 (CI)): 6.25 µg/mL
MIC (various pathogens; ACBA 1006 (CI)): 6.25 µg/mL
MIC (various pathogens; ACBA 1010 (CI)): < 0.098 µg/mL
MIC (various pathogens; Escherichia coli, 6083655967 [MCR 1+, E. Coli]): 12.5 µg/mL
MIC (various pathogens; Escherichia coli, 6093560257 [MCR 1+, E. Coli, NDM-1]): 0.78 µg/mL
MIC (various pathogens; Escherichia coli, 7023446108 [MCR 1−, E. Coli]): 3.12 µg/mL
MIC (various pathogens; Escherichia coli, 7103531927 [MCR 1+, E. Coli, KPC+]): < 0.0975 µg/mL
MIC (various pathogens; Escherichia coli, 7113636863 [MCR 1+, E. Coli, NDM-1]): 50 µg/mL
MIC (various pathogens; Escherichia coli, ATCC8739, E. Coli ATCC 8739): 0.024 µg/mL
MIC (various pathogens; Escherichia coli, ATCC10536, E. Coli ATCC 10536): 0.012 µg/mL
MIC (various pathogens; Escherichia coli, ATCC25922, E. Coli ATCC 25922): 0.012 µg/mL
MIC (various pathogens; Escherichia coli, E. Coli CRE 11804): < 0.015 µg/mL
MIC (various pathogens; Escherichia coli, E. Coli CRE 17232): 12.5 µg/mL
MIC (various pathogens; Escherichia coli, E. Coli CRE 17528): 25 µg/mL
MIC (various pathogens; Escherichia coli, E. Coli CRE 19211): 25 µg/mL
MIC (various pathogens; Escherichia coli, E. Coli CRE 34685): 0.195 µg/mL
MIC (various pathogens; KLPN ATCC 4352): < 0.049 µg/mL
MIC (various pathogens; KLPN ATCC 10031): < 0.049 µg/mL
MIC (various pathogens; KLPN ATCC 27736): < 0.049 µg/mL
MIC (various pathogens; KLPN CRE 7955): 100 µg/mL
MIC (various pathogens; KLPN CRE 15588): 25 µg/mL
MIC (various pathogens; KLPN CRE 16260): 3.12 µg/mL
MIC (various pathogens; KLPN CRE 27025): 3.12 µg/mL
MIC (various pathogens; KLPN CRE 55301): 25 µg/mL
MIC (various pathogens; PAE ATCC 9027): 0.78 µg/mL
MIC (various pathogens; PAE ATCC 27853): 1.56 µg/mL
MIC (various pathogens; PAE DM 23155): 1.56 µg/mL
MIC (various pathogens; PAE DM 23257): 0.78 µg/mL
MIC (various pathogens; PAE DM 23376): 1.56 µg/mL
MIC (various pathogens; PAE DR 4877): 25 µg/mL
MIC (various pathogens; PAE DR 5790): 25 µg/mL
MIC (various pathogens; PAE DU 14476): 25 µg/mL

CCN(CC)CCCCOc1ccc(C2COc3c(ccc4c3C=CC(C)(C)O4)C2)c(OCCCCN(CC)CC)c1 (stereo not drawn) [LC105]
MIC ([2]; strain 6075066346, MCR (+)): 25 µg/mL (≈ 43.2 µM)
MIC ([2]; strain 6083655967, MCR (+)): 25 µg/mL (≈ 43.2 µM)
MIC ([2]; strain 6103645107, MCR (+)): 25 µg/mL (≈ 43.2 µM)
MIC ([2]; strain 6123520276, MCR (+)): 25 µg/mL (≈ 43.2 µM)
MIC ([2]; strain 7013177695, MCR (+)): 25 µg/mL (≈ 43.2 µM)
MIC ([2]; strain 7023436560, MCR (+)): 25 µg/mL (≈ 43.2 µM)
MIC ([2]; strain 7028444207 (Table 1b), MCR (+)): 25 µg/mL (≈ 43.2 µM)
Colistin MIC in the presence of the compound ([4]; strain 6075066346, MCR(+), compound at 12.5 μg): 1.56 µg/mL
Colistin MIC in the presence of the compound ([4]; strain 6083655967, MCR(+), compound at 12.5 μg): 0.78 µg/mL
Colistin MIC in the presence of the compound ([4]; strain 6103645107, MCR(+), compound at 12.5 μg): 1.56 µg/mL
Colistin MIC in the presence of the compound ([4]; strain 6123520276, MCR(+), compound at 12.5 μg): 1.56 µg/mL
Colistin MIC in the presence of the compound ([4]; strain 7013177695, MCR(+), compound at 12.5 μg): 0.78 µg/mL
Colistin MIC in the presence of the compound ([4]; strain 7023436560, MCR(+), compound at 12.5 μg): 1.56 µg/mL
Colistin MIC in the presence of the compound ([4]; strain 7023444207, MCR(+), compound at 12.5 μg): 0.78 µg/mL

CC(C)=CCc1c(OCCN(C)CCCN(C)C)ccc(C(=O)/C=C/c2ccc(OCCN(C)CCCN(C)C)cc2)c1O [LC140]
MIC ([1]; strain 6083672926, MCR (−)): 12.5 µg/mL (≈ 20.5 µM)
MIC ([1]; strain 7023446108, MCR (−)): 12.5 µg/mL (≈ 20.5 µM)
MIC ([1]; strain 7033607097, MCR (−)): 6.25 µg/mL (≈ 10.3 µM)
MIC ([2]; strain 6075066346, MCR (+)): 12.5 µg/mL (≈ 20.5 µM)
MIC ([2]; strain 6083655967, MCR (+)): 12.5 µg/mL (≈ 20.5 µM)
MIC ([2]; strain 7103531927, MCR (+)): 25 µg/mL (≈ 41.1 µM)
Colistin MIC in the presence of the compound ([3]; strain 6083672926, MCR(−), compound at 2 μg): 1.56 µg/mL
Colistin MIC in the presence of the compound ([3]; strain 7023446108, MCR(−), compound at 2 μg): 1.56 µg/mL
Colistin MIC in the presence of the compound ([3]; strain 7033607097, MCR(−), compound at 2 μg): 1.56 µg/mL
